{"source": "patent US20160228575A1", "about": "“NARINGENIN COMPLEXES AND METHODS OF USE THEREOF” (THE GENERAL HOSPITAL CORPORATION, priority 2008, published 2016)", "key": {"[1]": {"test_system": "HCV (JFH-1) infection of naïve Huh7.5.1 cells", "test": "HCV infectivity of cell culture supernatant on naïve Huh7.5.1 cells", "type": "cell-based, Hepatitis C virus", "details": "Hepatitis C virus, Huh-7.5.1; supernatant after 24 hours stimulation; naringenin 200 μM, brefeldin A 2.5 μg/ml", "experimental": "The infectivity of the secreted HCV particles was measured as previously described (8). Naïve Huh7.5.1 cells were grown to 80% confluence and exposed to cell culture supernatants diluted 10-fold in culture media. Following 1 hour incubation at 37° C., the media was replaced, and the cells were cultured for 3 additional days. Levels of HCV infection were determined by immunofluorescence staining for HCV core protein. The viral titer is expressed as focus forming units per milliliter of supernatant (ffu/ml)."}, "ApoB [2]": {"test_system": "ApoB", "test": "ApoB secretion by JFH-1 infected Huh-7.5.1 cells (human ApoB ELISA)", "type": "cell-based", "details": "24 hours, brefeldin A 2.5 μg/ml", "experimental": "HCV-infected Huh-7.5.1 cells were plated on a 6-well plate at a density of 1×10^5 cells/cm^2 and cultured overnight in standard medium. Prior to the beginning of the experiment, the cells were washed 3 times with PBS and cultured with DMEM containing 5% lipoprotein-free FBS. Oleate, Insulin, Naringenin, and Brefeldin A were added at this time as described in the text. Following 24 hours of incubation, the plate was gently agitated to release mechanically bound particles, the media was collected, filtered to remove cellular debris, and stored at −80° C. for further analysis. The attached cells were washed 3 times with PBS, harvested, pelleted and stored at −80° C. for further analysis.\nHuh-7.5.1 and primary human hepatocytes secreted ApoB was detected in the media using ALerCHEK, Inc (Portland, Me.) total human ApoB ELISA kit. Media was diluted 1:10 with the specimen diluent, and the assay was carried out according to manufacturer's directions.\nHCV-infected Huh-7.5.1 cells were plated T-25 tissue culture flasks at a density of 1×10^5 cells/cm^2 and cultured overnight in standard medium. Prior to silencing, the cells were washed 3 times with PBS and media was replaced with OptiMEM basal medium. SureSilencing shRNA (GFP) plasmids against human ApoB100 as well as shRNA plasmid control (500 ng/ml) were combined with lipofectamine 2000 in OptiMEM and incubated with the cells overnight. SureSilencing shRNA plasmids code for GFP which was used to sort the transfected Huh7.5.1 cells, using FACSAria (BD Biosciences) located at the Partners AIDS Research Center. Transfected cells (10% of the total population) were sorted directly into a 12-well plate and allowed to adhere overnight. Culture media was conditioned by the transfected cells for 24 hours and analyzed as described above."}, "ApoB [3]": {"test_system": "ApoB", "test": "ApoB secretion by primary human hepatocytes (human ApoB ELISA)", "type": "cell-based", "details": "200 μM naringenin, 24 hours", "experimental": "The Huh-7.5.1 human hepatoma cell line and a plasmid containing the JFH-1 genome were kindly provided by Dr. Chisari (Scripps Research Institute, CA) and Dr. Wakita (National Institute of Infectious Diseases, Tokyo) respectively. Huh-7.5.1 cells were cultured in DMEM medium supplemented with 10% FBS, 200 units/ml penicillin and […] streptomycin in a 5% CO2-humidified incubator at 37° C. In vitro transcribed genomic JFH-1 RNA was delivered to cells by liposome-mediated transfection as described by Zhong et al. (2005)(8). Infected Huh-7.5.1 cells were passaged every 3 days and used at passage <15. The presence of HCV in these cells and corresponding supernatants were determined by quantitative Polymerase Chain Reaction (qPCR) and immunofluorescence staining. Primary human hepatocytes were purchased from BD Biosciences (San Jose, Calif.) cultured on a collagen-coated 12 well plate in C+H culture media composed of DMEM supplemented with 10% heat-inactivated FBS, 200 U/mL penicillin/streptomycin, 7.5 μg/mL hydrocortisone, 20 ng/mL EGF, 14 ng/mL glucagons and 0.5 U/mL insulin. […]\nHuh-7.5.1 and primary human hepatocytes secreted ApoB was detected in the media using ALerCHEK, Inc (Portland, Me.) total human ApoB ELISA kit. […]\nTo assess the potential of naringenin-based treatment, we measured ApoB secretion in primary human hepatocytes following 24 hours stimulation with naringenin. […]"}, "[4]": {"biological_target": "T1, Microsomal triglyceride transfer protein (MTP) (Homo sapiens, UniProt P55157)", "T1 construct": "The MTP assay was performed by incubating 50 μg cellular protein with 10 μl of donor and acceptor solutions; endogenous in cells; host or cells: Huh7.5.1 human hepatoma cells (sonicated homogenate, 50 µg cellular protein)", "T1 sequence (P55157 19-894)": "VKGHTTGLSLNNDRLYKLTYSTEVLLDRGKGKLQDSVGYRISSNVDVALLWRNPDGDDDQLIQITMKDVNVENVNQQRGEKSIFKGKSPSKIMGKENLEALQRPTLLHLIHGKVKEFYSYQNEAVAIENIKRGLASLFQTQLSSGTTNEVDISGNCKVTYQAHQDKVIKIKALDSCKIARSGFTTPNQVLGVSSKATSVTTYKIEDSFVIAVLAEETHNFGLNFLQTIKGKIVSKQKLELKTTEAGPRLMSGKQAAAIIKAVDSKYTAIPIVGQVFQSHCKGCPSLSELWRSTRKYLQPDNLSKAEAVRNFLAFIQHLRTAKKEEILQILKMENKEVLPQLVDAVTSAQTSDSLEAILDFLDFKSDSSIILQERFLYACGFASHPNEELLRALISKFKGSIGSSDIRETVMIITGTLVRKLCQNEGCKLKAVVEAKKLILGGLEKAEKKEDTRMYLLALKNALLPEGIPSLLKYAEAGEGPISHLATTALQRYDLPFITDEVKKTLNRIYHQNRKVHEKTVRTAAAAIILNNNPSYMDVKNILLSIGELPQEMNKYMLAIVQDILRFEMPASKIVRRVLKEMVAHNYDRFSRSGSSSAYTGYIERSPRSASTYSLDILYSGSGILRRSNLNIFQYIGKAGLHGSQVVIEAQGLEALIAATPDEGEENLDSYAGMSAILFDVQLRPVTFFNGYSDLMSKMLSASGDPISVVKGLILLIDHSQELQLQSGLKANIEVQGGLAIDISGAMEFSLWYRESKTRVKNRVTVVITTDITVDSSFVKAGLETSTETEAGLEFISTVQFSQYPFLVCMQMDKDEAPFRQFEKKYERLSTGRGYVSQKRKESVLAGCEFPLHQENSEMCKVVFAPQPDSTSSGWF", "T1 sequence (P07237 18-508 partner)": "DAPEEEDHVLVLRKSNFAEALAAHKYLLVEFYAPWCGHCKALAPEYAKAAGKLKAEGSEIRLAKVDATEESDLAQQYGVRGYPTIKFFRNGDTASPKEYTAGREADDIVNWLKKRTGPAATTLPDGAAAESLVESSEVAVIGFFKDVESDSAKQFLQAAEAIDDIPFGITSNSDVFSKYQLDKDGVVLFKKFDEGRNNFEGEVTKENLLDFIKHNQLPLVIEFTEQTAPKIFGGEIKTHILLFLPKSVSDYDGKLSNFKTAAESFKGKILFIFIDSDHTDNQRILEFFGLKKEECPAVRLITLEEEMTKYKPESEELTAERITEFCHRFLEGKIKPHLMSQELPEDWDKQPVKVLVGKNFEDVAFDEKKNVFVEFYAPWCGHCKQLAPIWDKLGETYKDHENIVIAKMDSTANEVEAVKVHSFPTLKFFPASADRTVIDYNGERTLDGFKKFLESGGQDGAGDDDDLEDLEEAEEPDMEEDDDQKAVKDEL", "test": "Microsomal triglyceride transfer protein (MTP) activity assay in Huh7.5.1 cell homogenates", "type": "cell-based", "details": "Huh-7.5.1, 24 hours stimulation of Huh7.5.1 cells", "experimental": "MTP activity was analyzed using an MTP assay kit as previously described (11). The assay is based on a transfer of a fluorescent signal between donor and acceptor particles due to MTP activity. Briefly, confluent Huh7.5.1 cells stimulated with naringenin or carrier control for 24 hours then washed with ice cold PBS and scraped off the dish using a cell scraper. Samples were homogenized by sonication (3×5 sec) in buffer containing protease inhibitors. The MTP assay was performed by incubating 50 μg cellular protein with 10 μl of donor and acceptor solutions in 250 μl total buffer (15 mM Tris pH 7.4; 40 mM NaCl; 1 mM EDTA). Increase in fluoresecent signal was measured over 12 hours at 37° C. at the excitation wavelength of 465 nm and emission wavelength of 538 nm."}, "PPARα": {"test_system": "PPARα", "test": "PPARα transcription in infected Huh7.5.1 cells", "type": "cell-based, human", "details": "short term 24 hours stimulation of Huh7.5.1 cells", "experimental": "(§1) Virus samples collected in each experiment were filtered with a 0.45 μm filter and a volume of 100 μL for each sample was heated at 95° C. for 45 min. The reverse transcription reaction step was performed on a Mastercycler epgrdientS (Eppendorf) instrument using Omniscript and Sensiscript RT Kits (Qiagen). Real time PCR was performed on a Light Cycler LC-24 (Idaho Technology), using SuperScript™ III Platinum® CellsDirect Two-Step qRT-PCR Kits (Invitrogen) for quantitative PCR. For reverse transcription step, 2 μL of sample without RNA extraction were used. For real time PCR, 1 μL of the reverse transcription reactions was used. All reactions were performed according to the manufacturer's instructions using the primers detailed in Table 1.\n(§2) PPARα and LXRα are ligand-activated transcription factors which control much of the fasted-to-fed transition and were previously shown to be important in the development of inflammation and insulin resistance. […] Following a short term 24 hours stimulation of Huh7.5.1 cells PPARα transcription increased by 86%, while LXRα was decreased by 25%. PPARα is the target of fibrates and plays a major role in the downregulation of inflammation, increasing sensitivity to insulin, and modulating dyslipidemia."}, "LXRα": {"test_system": "LXRα", "test": "LXRα transcription in infected Huh7.5.1 cells", "type": "cell-based, human", "details": "short term 24 hours stimulation of Huh7.5.1 cells", "experimental": "as §1, §2"}, "physchem": {"test": "physchem", "details": "37 °C, water, thermodynamic from solid, naringenin solubility in water"}}}
{"smiles": "O=C1C[C@@H](c2ccc(O)cc2)Oc2cc(O)cc(O)c21", "note": "[naringenin]", "values": [{"measurement": "inhibition at 200 µM", "setting": "[1]", "result": 79, "unit": "%"}, {"measurement": "ApoB secretion (in words)", "setting": "ApoB [2]", "result": "Inhibition"}, {"measurement": "decrease in ApoB secretion", "setting": "ApoB [3]", "result": "60%±7%"}, {"measurement": "inhibition at 200 µM", "setting": "[4]", "result": 58, "unit": "%"}, {"measurement": "increase of PPARα transcription", "setting": "PPARα", "result": 86, "unit": "%"}, {"measurement": "decrease of LXRα transcription", "setting": "LXRα", "result": 25, "unit": "%"}, {"measurement": "solubility", "setting": "physchem", "result": 40, "unit": "µM"}]}
